What follows are compounds tested on A549 (assay: Growth inhibition of human A549 cells after 48 hrs by SRB assay). Details: A549, 48 h.
Assay type: functional

Point of comparison: `C[C@@H]1C[C@H]2O[C@@H]2/C=C\C=C\C(=O)Cc2c(Cl)c(O)cc(O)c2C(=O)O1` [RADICICOL], GI50 1.43 µM. Against it:
- C/C=C/C=C/C=C(\C=O)C(OCc1c(O)cccc1CCC)C(C)=O (stereo unspecified) — 13-fold higher, 19.3 µM
- C/C=C/C=C/C=C(\CO)[C@H](OCc1c(O)cccc1CCC)[C@H](C)O — 18-fold higher, 25.6 µM
- O=c1[nH]cc(F)c(=O)[nH]1 [FLUOROURACIL] — 3.2-fold higher, 4.55 µM
- C/C=C/C=C/C=C1\CO[C@](C)(OC)[C@H]1OCc1c(O)cccc1CCC — 17-fold higher, 24.3 µM
- C/C=C/C=C/C=C1\[C@H](OC)O[C@](C)(OC)[C@H]1OCc1c(O)cccc1CCC — 11-fold higher, 16.2 µM
